# Source: patent US20250326772A1, “MRGPRX2 ANTAGONISTS, PHARMACEUTICAL COMPOSITION INCLUDING MRGPRX2 ANTAGONIST, AND METHOD OF TREATING MRGPRX2-MEDIATED DISEASE OR DISORDER” (KYORIN PHARMACEUTICAL CO., LTD., priority 2024, published 2025)
# pIC50: −log10 of the molar value.
# Target: T1, MRGPRX2 (Homo sapiens, UniProt Q96LB1)
# T1 sequence (Q96LB1 1-330): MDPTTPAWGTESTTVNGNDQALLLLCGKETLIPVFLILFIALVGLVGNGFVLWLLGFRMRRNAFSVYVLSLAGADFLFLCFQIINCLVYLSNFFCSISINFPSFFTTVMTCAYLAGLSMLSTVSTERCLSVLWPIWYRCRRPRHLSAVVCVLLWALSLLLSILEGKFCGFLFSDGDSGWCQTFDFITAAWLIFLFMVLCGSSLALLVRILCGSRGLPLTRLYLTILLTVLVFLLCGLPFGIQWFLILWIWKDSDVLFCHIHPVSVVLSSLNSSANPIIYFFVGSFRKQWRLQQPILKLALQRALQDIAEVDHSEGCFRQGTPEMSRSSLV
# Assay: MRGPRX2 reporter cell assay (NFAT-RE luciferase, Substance P stimulation)
# Format: cell-based
# Settings: U2OS cells stably transfected with MRGPRX2 and NFAT-RE luciferase reporter; Substance P at EC80; class symbols
# Method: MRGPRX2 Reporter Cell Assays U2OS cells (ATCC, Manassas, VA) were stably transfected with MRGPRX2 expression clones (GeneCopoeia, Rockville, MD) and the pGL4.30 [luc2P/NFAT-RE/Hygro] reporter plasmid (Promega, Madison, WI). Clonal cells were maintained in Growth Media (McCoy's 5A, 10% FBS, 495 μg/ml hygromycin, 2 μg/ml puromycin, 100 units/ml penicillin, and 100 ug/ml streptomycin). The day before assay, cells were plated to white 384-well microplates at 3000 (MRGPRX2) cells/well in 10 ul Assay Media (McCoy's 5A, 2% charcoal dextran stripped FBS, 100 units/ml penicillin, and 100 ug/ml streptomycin) (Gibco, Thermo Fisher) and allowed to adhere overnight. The following day, serially diluted compound stocks were added directly to the cells (final DMSO concentration of 0.5%) and pre-incubated for 30 minutes at 37° C., 5% CO2. The final concentration of Substance P (Tocris, Minneapolis, MN, or PEPTIDE INSTITUTE, Osaka, Japan) corresponding to EC80 was added to stimulate the (MRGPRX2) cells. Cells were returned to the incubator for 6 hrs, after which 5 ul of ONE-GLO substrate (Promega) was added. Luminescence was read within 15 minutes (BioTek, Winooski, VT or infinite M1000Pro, Tecan Japan, Kanagawa, Japan). Percent inhibition for each test compound was calculated using the formula: […] where: • A=the luminescence count of the “test compound” well • B=the median luminescence count of the “Vehicle (0.5% DMSO)” wells • C═the median luminescence count of the “Vehicle (0.5% DMSO)+5 uM of substance P” wells The mean percent inhibition of each concentration of “test compound” was used to generate dose-response curves. IC50 values were calculated using a four-parameter logistic fit to the data using GraphPad Prism software. • +++: […]
row,SMILES,pIC50
1,Cc1ccc(C#N)c(-c2c(-c3c[nH]nc3OC(F)F)[nH]c3ncccc23)c1 [EX. 158],> 8.00
2,[2H]C([2H])([2H])Oc1ccc(C#N)c(-c2c(-c3c(C)nn4c3OC(C)C4)[nH]c3ncccc23)c1 (centres unmarked) [EX. 167],> 8.00
3,[2H]C([2H])([2H])Oc1ccc(C#N)c(-c2c(-c3c(C)nn4c3NCC4)[nH]c3ncccc23)c1 [EX. 168],> 8.00
4,[2H]C([2H])([2H])Oc1ccc(C#N)c(-c2c(-c3c(C)nn4cc[nH]c34)[nH]c3ncccc23)c1 [EX. 169],> 8.00
5,[2H]C([2H])([2H])Oc1ccc(C#N)c(-c2c(-c3c(C)nn4c3OCCC4C)[nH]c3ncccc23)c1 (centres unmarked) [EX. 170],> 8.00
6,[2H]C([2H])([2H])Oc1ccc(C#N)c(-c2c(-c3c(OC)nn4cccnc34)[nH]c3ncccc23)c1 [EX. 175],> 8.00
7,[2H]C([2H])([2H])Oc1ccc(C#N)c(-c2c(-c3c(C)nn4c3OCC[C@@H]4C)[nH]c3ncccc23)c1 [EX. 176],> 8.00
8,[2H]C([2H])([2H])Oc1ccc(C#N)c(-c2c(-c3c(C4CC4)nn4c3OCCC4)[nH]c3ncccc23)c1 [EX. 177],> 8.00
9,[2H]C([2H])([2H])Oc1ccc(C#N)c(-c2c(-c3c(C)nn4c3OCC[C@H]4C)[nH]c3ncccc23)c1 [EX. 178],> 8.00
10,[2H]C([2H])([2H])Oc1ccc(C#N)c(-c2c(-c3c(C)nn4cc(OC)cnc34)[nH]c3ncccc23)c1 [EX. 179],> 8.00
11,COc1ccc(C#N)c(-c2c(-c3c(C)nn4cc(O)cnc34)[nH]c3ncccc23)c1 [EX. 181],> 8.00
12,COc1ccc(C#N)c(-c2c(-c3c(C)nn4cc(F)cnc34)[nH]c3ncccc23)c1 [EX. 182],> 8.00
13,COc1ccc(C#N)c(-c2c(-c3c(C(F)F)nn4c3OCC3(CC3)C4)[nH]c3ncccc23)c1 [EX. 183],> 8.00
14,[2H]C([2H])([2H])Oc1ccc(C#N)c(-c2c(-c3c(C)nn4c3OCC(O)C4)[nH]c3ncccc23)c1 (centres unmarked) [EX. 199],> 8.00
15,[2H]C([2H])([2H])Oc1ccc(C#N)c(-c2c(-c3c(CC)nn4c3OCCC4)[nH]c3ncccc23)c1 [EX. 200],> 8.00
16,[2H]C([2H])([2H])Oc1ccc(C#N)c(-c2c(-c3c(C(F)F)nn4c3OCC(OC)C4)[nH]c3ncccc23)c1 (centres unmarked) [EX. 201],> 8.00

row,SMILES,pIC50
1,[2H]C([2H])([2H])Oc1ccc(C#N)c(-c2c(-c3c(C(F)F)nn4c3OCC(O)C4)[nH]c3ncccc23)c1 (centres unmarked) [EX. 202],> 8.00
2,N#Cc1ccccc1-c1c(-c2c(C(F)F)nn3c2OCC(O)C3)[nH]c2ncccc12 (centres unmarked) [EX. 203],> 8.00
3,[2H]c1cnc2[nH]c(-c3c(C)nn4c3OCCC4)c(-c3cc(OC([2H])([2H])[2H])ccc3C#N)c2c1 [EX. 216],> 8.00
4,[2H]c1cnc2[nH]c(-c3c(C)nn4c3OCC4)c(-c3cc(OC([2H])([2H])[2H])ccc3C#N)c2c1 [EX. 218],> 8.00
5,COc1ccc(C#N)c(-c2c(-c3c(OC)nn4cccnc34)[nH]c3ncccc23)c1 [EX. 225],> 8.00
6,COc1ccc(C#N)c(-c2c(-c3c(C)nn4c3OCCC4)[nH]c3ncccc23)c1 [EX. 227],> 8.00
7,COc1ccc(C#N)c(-c2c(-c3c(C)nn4c3OCC4)[nH]c3ncccc23)c1 [EX. 230],> 8.00
8,[2H]C([2H])([2H])Oc1ccc(C#N)c(-c2c(-c3c(CF)nn4c3OCCC4)[nH]c3ncccc23)c1 [EX. 235],> 8.00
9,[2H]C([2H])([2H])Oc1ccc(C#N)c(-c2c(-c3c(C)nn4cccnc34)[nH]c3ncccc23)c1 [EX. 236],> 8.00
10,[2H]C([2H])([2H])Oc1ccc(C#N)c(-c2c(-c3c(C)nn4c3OCC4)[nH]c3ncccc23)c1 [EX. 238],> 8.00
11,[2H]C([2H])([2H])Oc1ccc(C#N)c(-c2c(-c3c(C)nn4c3OCCC4)[nH]c3ncccc23)c1 [EX. 239],> 8.00
12,Cn1nc(-c2[nH]c3ncccc3c2-c2ccccc2C#N)c(C(F)(F)F)n1 [EX. 241],> 8.00
13,COc1ccc(C#N)c(-c2c(-c3c(C(F)F)nn4c3OCCC4)[nH]c3ncccc23)c1 [EX. 242],> 8.00
14,COc1ccc(C#N)c(-c2c(-c3c(C(F)F)nn4c3OCC4)[nH]c3ncccc23)c1 [EX. 243],> 8.00
15,COc1ccc(C#N)c(-c2c(-c3c(C)nn4cccnc34)[nH]c3ncccc23)c1 [EX. 245],> 8.00
16,[2H]C([2H])([2H])Oc1ccc(C#N)c(-c2c(-c3c(C(F)F)nn4c3OCCC4)[nH]c3ncccc23)c1 [EX. 247],> 8.00
